Results published in patent US20260224692A1, “T CELL-DIRECTED ANTI-AGING AND ANTI-CANCER VACCINES AGAINST COMMENSAL CYTOMEGALOVIRUS” (The General Hospital Corporation, priority 2023, published 2026).

B1: CXCL9: recombinant human CXCL9 chemokine (PeproTech, 300-26), ligand of CXCR3 (protein, UniProt Q07325 23-125, looked up)
C-X-C motif chemokine 9: TPVVRKGRCSCISTNQGTIHLQSLKDLKQFAPSPSCEKIEIIATLKNGVQTCLNPDSADVKELIKKWEKQVSQKKKQKNGKKHQKKKVLKVRKSQRSRQKKTT

What was measured:
senescent fibroblasts = experiment: SCFA-mediated CD4+ T cell stimulation assay: T cell-mediated cytotoxicity against senescent fibroblasts; type: cell-based, human; conditions: T cells exposed to 5 mM SCFA for 2 days; 6 h co-culture; T cell to fibroblast ratio 50:1
Experimental: FIGS. 15A-15B. […] (A) The frequency of cleaved caspase-3^+ senescent fibroblasts after co-culture for 6 h with skin T cells, which are preincubated with each 5 mM SCFAs for 2 days, using a skin T cell to fibroblast ratio of 50:1. All data are expressed as the mean±SD. n=3 individuals. (B) The effect of each SCFA (5 mM) treatment on the cytotoxicity of CD4^+ T cells. Flow cytometry analysis of perforin and CD107a expression on CD4^+ T cells exposed to each SCFA for 24 h. n=2 individuals. All data are expressed as the mean±SD.
T cells were seeded at a density of 2.5×10^5 cells into 60 mm dish, and were added to each 5 mM SCFAs, including butylate (EMD Millipore), pentanoate (Ambeed Inc), or propionate (Sigma-Aldrich) with 20 ng/ml human IL-2 recombinant and 20 ng/ml human IL-15 recombinant for 2 days. Following 2 days of co-incubation, T cells were subsequently added to each senescent fibroblasts-placed wells and were cultured in T cell medium with 20 ng/ml human IL-2 recombinant and 20 ng/ml human IL-15 recombinant in 24 well plate (Ratios of 50:1 T cells-to fibroblasts respectively). Following 6 hr of co-incubation, remaining fibroblasts were stained with vimentin and cleaved caspase-3 to examine the frequency of T cell-mediated cytotoxicity against senescent fibroblasts. […]

skin CD4+ T cells = experiment: Flow cytometry analysis of perforin and CD107a expression on CD4+ T cells exposed to SCFA; type: cell-based, human; conditions: 5 mM SCFA, 24 h
Experimental: FIGS. 15A-15B. Butyrate and pentanoate boost CD4 CTL-mediated clearance of senescent cells. (A) The frequency of cleaved caspase-3^+ senescent fibroblasts after co-culture for 6 h with skin T cells, which are preincubated with each 5 mM SCFAs for 2 days, using a skin T cell to fibroblast ratio of 50:1. All data are expressed as the mean±SD. n=3 individuals. (B) The effect of each SCFA (5 mM) treatment on the cytotoxicity of CD4^+ T cells. Flow cytometry analysis of perforin and CD107a expression on CD4^+ T cells exposed to each SCFA for 24 h. n=2 individuals. All data are expressed as the mean±SD.
Cells were washed once with PBS, including 5% newborn calf serum (Thermo Fisher Scientific, 26010074) and 0.01% sodium azide (Sigma-Aldrich, S2002-100G), and stained with antibodies (Tables 3B and 3B) on ice for 30 min followed by secondary antibody if needed (Table 3A). Following the surface marker staining, cells were fixed and permeabilized for intracellular staining using True-Nuclear Transcription Factor Buffer Set (BioLegend, 424401). Permeabilized cells were stained with antibodies (Table 3A) overnight at 4° C. […] Data were analyzed using FlowJo software (BD Life Sciences, Franklin Lakes, NJ). Relative fluorescence intensity was calculated by subtracting the median fluorescence intensity of isotype control from the median fluorescence intensity of stained samples.

human skin CD4 CTLs = experiment: Trans-well migration assay; type: cell-based; conditions: recombinant human CXCL9 50 nM (585 ng/mL) in bottom well, 60 min, vs PBS carrier
Description: FIGS. 6A-6E. CXCL9 promotes the migration of human skin-resident CD4 CTLs. […] The percent cells in each gate are shown on the flow-cytometry plots. Zombie fixable viability dye (Viability) marks dead cells. (B) Representative flow-cytometry plots of CXCR3 expression on CD4^+ and CD8^+ T cells in the human skin. Numbers on the flow-cytometry plots represent the percent cells within each gate. (C) The experimental scheme for trans-well migration assay using the immune cells isolated from the human skin. (D and E) The effect of CXCL9 recombinant protein (585 ng/mL) treatment on the migration of human skin CD4 CTLs (D) and CD8^+ T cells (E). Skin samples from two independent donors were used to isolate skin-resident immune cells (female skin donors). Bar graphs show mean±SD, Mann-Whitney U test.
Skin-isolated cells were seeded at a density of 1.5×10^4 cells/well into the top inserts of the 24-well trans-well plate (Corning, 07-200-149). The pore size is 5 μm. RPMI containing recombinant human CXCL9 (PeproTech, 300-26) or PBS (carrier only) at the concentration of 50 nM was added into the bottom well. Skin-isolated cells were incubated for 60 min. Then, cells were counted and stained as described in the flow cytometry section.

Row | Molecule | apoptosis (cleaved caspase-3+) in senescent fibroblasts by SCFA-exposed skin T cells (senescent fibroblasts) | expression of perforin+ and CD107a+ on CD4+ T cells (cytotoxicity capacity) (skin CD4+ T cells) | migration of human skin CD4 CTLs (human skin CD4 CTLs)
1 | CCCC(=O)O [butyrate] | highly induced apoptosis | increase | 
2 | CCCCC(=O)O [pentanoate] | highly induced apoptosis | increase | 
3 | B1 |  |  | significantly induced the migration of CD4 CTLs
